The source made the active and inactive calls.
What was measured:
[1] = Luminescence Cell-Based Dose Response HTS to Identify Activators of Luciferase Translation or Activity in H4 […] Cells. [Related pubchem assays: 1829 (Project Summary), 1814 (Primary HTS)]; assay type: functional
[2] = cytotoxicity toward NIH3T3 fibroblasts, dose response, counter-screen, cell-based, ATP luminescence, mouse fibroblasts (AID 2010); assay type: functional;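 also: cells exposed to compound for about 90 hours before reading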
[3] = Vero cell cytotoxicity, dose response, cytotoxicity control for Vif-APOBEC3G degradation inhibitor project, Vero cells (AID 1117358); assay type: functional; details: Human immunodeficiency virus 1, Vero
[4] = inhibitors of intracellular T. cruzi replication, confirmation, NIH3T3 host cells, beta-gal luminescence (AID 2044); assay type: functional, cell-based;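 also: intracellular parasites grown in NIH/3T3 mouse fibroblasts as host cells; luminescent beta-galactosidase reporter signal from transgenic T. cruzi replicating inside host cells; inhibitors lower the luminescence signal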
[5] = Luminescence Cell-Based Dose Confirmation HTS to Identify Activators of 5'UTR Stem-Loop Driven Alpha-Synuclein mRNA Translation in H4 Neuroglioblastoma Cells. [Related pubchem assays: 1829 (Project Summary), 1814 (Primary HTS)]; assay type: functional
[6] = test system: H4; assay: Luminescence Cell-Based Dose Response HTS to Identify Activators of 5'UTR Stem-Loop Driven Prion Protein mRNA Translation in H4 Neuroglioblastoma Cells. [Related pubchem assays: 1829 (Project Summary), 1814 (Primary HTS)]; assay type: functional; details: Homo sapiens
[7] = target: T1, Tyrosine-protein phosphatase non-receptor type 7 (Homo sapiens, UniProt P35236); assay: inhibitors of human HePTP phosphatase, […], biochemical, absorbance, leukemia target (AID 521); assay type: functional
T1 sequence (P35236 whole entry): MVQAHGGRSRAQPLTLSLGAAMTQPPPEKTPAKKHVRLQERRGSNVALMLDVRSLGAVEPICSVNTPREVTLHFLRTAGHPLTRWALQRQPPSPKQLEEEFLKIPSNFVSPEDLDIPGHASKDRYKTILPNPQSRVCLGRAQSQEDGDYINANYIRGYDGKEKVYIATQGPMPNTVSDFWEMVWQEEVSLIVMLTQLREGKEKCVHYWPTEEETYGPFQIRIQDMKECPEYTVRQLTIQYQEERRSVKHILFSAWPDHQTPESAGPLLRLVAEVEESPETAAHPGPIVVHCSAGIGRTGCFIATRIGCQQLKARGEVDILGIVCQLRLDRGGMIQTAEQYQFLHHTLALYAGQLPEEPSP

[8] = target: Heat shock protein HSP 90-alpha (Homo sapiens, UniProt P07900); assay: Luminescence-based dose response biochemical high throughput screening assay for inhibitors of the Heat Shock Protein 90 (HSP90). [Related pubchem assays: 1831 (Summary AID.), 1846 (Confirmation screen.), 1789 (Primary screen.)]
[9] = target: FAD-linked sulfhydryl oxidase ALR (Homo sapiens, UniProt P55789); assay: inhibitors of human ALR sulfhydryl oxidase, dose response, biochemical, H2O2 detection, luminescence, cherry-pick (AID 493248)
[10] = target: T2, Leucine aminopeptidase (Plasmodium falciparum 3D7, UniProt Q8IL11); assay: P. falciparum M17LAP inhibitors, primary screen, biochemical, fluorogenic H-Leu-NHMec substrate, 1536-well (AID 1619); assay type: functional
T2 sequence (Q8IL11 whole entry): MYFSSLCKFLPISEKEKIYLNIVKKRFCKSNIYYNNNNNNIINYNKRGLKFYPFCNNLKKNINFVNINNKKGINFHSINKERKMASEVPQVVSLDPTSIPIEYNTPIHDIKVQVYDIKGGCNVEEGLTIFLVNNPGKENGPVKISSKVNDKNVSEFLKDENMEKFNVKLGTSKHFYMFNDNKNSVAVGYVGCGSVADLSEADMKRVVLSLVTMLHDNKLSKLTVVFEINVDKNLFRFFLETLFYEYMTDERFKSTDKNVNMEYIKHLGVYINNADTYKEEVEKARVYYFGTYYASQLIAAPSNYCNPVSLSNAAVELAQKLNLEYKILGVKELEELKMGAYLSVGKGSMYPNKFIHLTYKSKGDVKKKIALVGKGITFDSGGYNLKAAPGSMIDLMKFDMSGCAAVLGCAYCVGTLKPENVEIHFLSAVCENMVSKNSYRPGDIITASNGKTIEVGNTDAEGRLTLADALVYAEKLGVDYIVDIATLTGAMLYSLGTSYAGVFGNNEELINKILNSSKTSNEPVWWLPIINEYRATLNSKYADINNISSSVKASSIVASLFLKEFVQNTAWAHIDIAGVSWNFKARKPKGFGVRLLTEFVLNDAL

[11] = target: T3, Aryl hydrocarbon receptor (Homo sapiens, UniProt P35869); assay: Luminescence-based cell-based high throughput dose response assay for activators of the Aryl Hydrocarbon Receptor (AHR). [Related pubchem assays: 2796 (Primary screen (AHR activators in singlicate)), 2845 (Confirmation screen (AHR activators in triplicate)), 434939 (Counterscreen (PXR activators in triplicate)), 2804 (Summary (AHR activators))]; assay type: ADME
T3 sequence (P35869 whole entry): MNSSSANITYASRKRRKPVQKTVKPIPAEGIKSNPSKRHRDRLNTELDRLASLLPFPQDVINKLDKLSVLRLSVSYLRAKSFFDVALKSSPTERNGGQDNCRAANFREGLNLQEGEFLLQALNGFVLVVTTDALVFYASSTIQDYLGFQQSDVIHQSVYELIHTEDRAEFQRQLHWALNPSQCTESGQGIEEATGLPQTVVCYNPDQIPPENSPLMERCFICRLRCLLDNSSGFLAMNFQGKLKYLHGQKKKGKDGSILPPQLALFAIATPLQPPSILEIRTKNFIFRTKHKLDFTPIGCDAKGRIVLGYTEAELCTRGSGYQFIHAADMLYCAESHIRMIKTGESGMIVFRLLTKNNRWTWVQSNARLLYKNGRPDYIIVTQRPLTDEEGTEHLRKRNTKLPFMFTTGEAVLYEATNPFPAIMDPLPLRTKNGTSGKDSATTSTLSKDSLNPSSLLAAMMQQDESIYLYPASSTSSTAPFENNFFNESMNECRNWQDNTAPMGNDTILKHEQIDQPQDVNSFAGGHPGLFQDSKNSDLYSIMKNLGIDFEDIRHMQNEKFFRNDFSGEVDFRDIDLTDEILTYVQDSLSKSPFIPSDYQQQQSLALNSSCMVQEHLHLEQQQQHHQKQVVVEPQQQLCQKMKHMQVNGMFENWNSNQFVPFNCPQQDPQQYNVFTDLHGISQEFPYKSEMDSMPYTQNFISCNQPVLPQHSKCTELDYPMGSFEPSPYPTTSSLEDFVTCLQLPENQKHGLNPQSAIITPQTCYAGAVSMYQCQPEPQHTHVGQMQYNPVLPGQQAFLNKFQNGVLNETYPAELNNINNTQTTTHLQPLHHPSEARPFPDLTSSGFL

[12] = THP-1 cell cytotoxicity, dose response, cytotoxicity control for Vif-APOBEC3G degradation inhibitor project, THP-1 cells (AID 1117359); assay type: functional; details: Human immunodeficiency virus 1, THP-1
[13] = inhibitors of Vif binding to APOBEC3G peptide, primary screen, biochemical, TR-FRET, GST-Vif 1-94, biotin-A3G peptide, dose response retest (AID 1117319); assay type: functional;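 also: TR-FRET signal of purified GST-Vif binding a biotinylated A3G peptide; inhibitors lower the FRET signal by blocking Vif and A3G binding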
[14] = target: Mitogen-activated protein kinase 10 (Homo sapiens, UniProt P53779); assay: Dose response biochemical screening assay for inhibitors of c-Jun N-Terminal Kinase 3 (JNK3). [Related pubchem assays: 746 ]
[15] = cytotoxicity in HEK-293T NF-kB-Luc cells, dose response, cytotoxicity control for B/T-cell NF-kB inhibitor project, cell-based, uHTS hits (AID 489019); assay type: functional;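 also: IC50 reflects cytotoxicity as loss of cell viability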
[16] = test system: Jurkat; assay: antigen receptor-induced NF-kB inhibitors, dose response, Jurkat, luciferase reporter, luminescence, B- and T-cell (AID 489004); assay type: functional, cell-based; details: Homo sapiens;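 also: NF-kB luciferase reporter Jurkat cells stimulated with PMA plus ionomycin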
[17] = target: T4, COUP transcription factor 2 (Homo sapiens, UniProt P24468); assay: Luminescence-based cell-based high throughput dose response assay to identify inhibitors of COUP-TFII (NR2F2).; assay type: functional;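 also: HEK293 cells transiently cotransfected with COUP-TFII expression vector and reporter; luciferase reporter luminescence driven by COUP-TFII from the pX2-168 reporter plasmid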
T4 sequence (P24468 whole entry): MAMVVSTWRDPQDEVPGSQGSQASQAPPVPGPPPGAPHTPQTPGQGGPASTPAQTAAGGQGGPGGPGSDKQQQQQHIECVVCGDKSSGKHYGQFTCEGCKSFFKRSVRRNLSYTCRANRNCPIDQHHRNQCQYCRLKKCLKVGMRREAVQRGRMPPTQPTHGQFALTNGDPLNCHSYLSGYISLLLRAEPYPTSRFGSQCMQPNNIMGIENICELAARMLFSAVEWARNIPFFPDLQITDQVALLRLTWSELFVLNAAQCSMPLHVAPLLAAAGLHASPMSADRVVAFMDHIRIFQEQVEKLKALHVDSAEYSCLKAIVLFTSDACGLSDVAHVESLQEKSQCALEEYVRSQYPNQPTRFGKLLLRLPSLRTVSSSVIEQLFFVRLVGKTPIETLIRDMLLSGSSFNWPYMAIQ

Chain of Mitogen-activated protein kinase 10 (P53779 whole entry): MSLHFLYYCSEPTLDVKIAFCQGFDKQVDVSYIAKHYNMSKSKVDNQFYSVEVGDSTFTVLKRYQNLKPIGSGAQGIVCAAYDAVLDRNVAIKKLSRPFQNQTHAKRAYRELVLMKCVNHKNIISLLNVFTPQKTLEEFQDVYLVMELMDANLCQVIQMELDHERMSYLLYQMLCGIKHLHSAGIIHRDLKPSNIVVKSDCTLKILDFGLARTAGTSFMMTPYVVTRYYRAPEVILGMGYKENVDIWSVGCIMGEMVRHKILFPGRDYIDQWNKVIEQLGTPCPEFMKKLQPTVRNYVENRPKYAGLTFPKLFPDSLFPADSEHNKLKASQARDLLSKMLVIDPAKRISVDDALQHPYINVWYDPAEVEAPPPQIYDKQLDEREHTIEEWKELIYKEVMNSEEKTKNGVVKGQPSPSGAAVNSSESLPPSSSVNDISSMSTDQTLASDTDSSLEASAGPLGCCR
Chain of FAD-linked sulfhydryl oxidase ALR (P55789 whole entry): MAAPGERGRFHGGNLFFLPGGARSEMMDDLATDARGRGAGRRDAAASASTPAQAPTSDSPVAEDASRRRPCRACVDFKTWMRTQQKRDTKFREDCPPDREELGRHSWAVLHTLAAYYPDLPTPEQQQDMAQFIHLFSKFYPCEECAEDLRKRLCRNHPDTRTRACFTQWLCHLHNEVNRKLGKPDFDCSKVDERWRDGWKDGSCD

In the case of `Fc1ccc(C(CCCn2nnc(-c3cccnc3)n2)c2ccc(F)cc2)cc1`, the EC50 [1] was 16.3 µM (active), the EC50 [2] was > 30 µM (not active) and the CC50 [3] was > 40 µM (active). For the same molecule, the EC50 [4] was 2.22 µM (active), the EC50 [5] was 13.7 µM (active) and the EC50 [6] was > 120 µM (not active).

For `O=C(O)C1(c2ccc(Cl)cc2)CCC1`, the IC50 [7] was > 100 µM (not active).

For `COc1cc(N2Cc3ccccc3C2)ccc1C=O`, the IC50 [8] was > 7 µM (active).

With `COc1cc(/C=N/Nc2ccc(Cl)c(C(=O)O)c2)ccc1OC(=O)c1cccs1` the AC50 [9] was 5.23 µM (active), the IC50 [8] was 1.32 µM (active) and the IC50 [10] was 55.5 µM (active).

With `N#C/C(=C/c1ccccc1)c1nn(CCO)c(N)c1C#N` the EC50 [11] was 6.55 µM (active).

With `O=C(NC(=S)Nc1ccc(F)c(Cl)c1)C1CC1` the EC50 [11] was 0.861 µM (active).

In the case of `COc1ccc(CCNCc2ccc(C)s2)cc1OC`, the CC50 [12] was > 40 µM (active) and the IC50 [13] was > 100 µM (active).

For `Cc1ccccc1-n1nc(C)c2cc(C(=O)NCc3cccnc3)sc21`, the IC50 [14] was 10.6 µM (not active).

In the case of `Cc1ccc(-c2csc(NC(=O)C3CCN(S(=O)(=O)c4cccs4)CC3)n2)cc1`, the IC50 [15] was > 80 µM (inactive), the IC50 [16] was 8.06 µM (active) and the IC50 [17] was 8.11 µM (active).

For `COc1ccc(CCNC(=O)C(C)n2nc(C)c3c(C)n(-c4ccc(C)cc4)nc3c2=O)c(OC)c1` (stereo unspecified), the IC50 [17] was 5.2 µM (active).

For `C/C(=N\NC(=O)c1cccnc1)c1ccc(-n2ccnc2)cc1`, the EC50 [11] was 5.46 µM (active).

Reference: ChEMBL document CHEMBL1201862, “PubChem BioAssay data set” (2004)
